Source: article PMC9633586 (Biochemistry, 2022)

Target: Cj1438 (Campylobacter jejuni, UniProt Q0P8H6)
Assay: […] NMR, formation of S-11
Assay type: biochemical
Settings: 20 mM MgCl2, 10 mM ATP, 10 mM D-glucuronate, 50 mM HEPES/K+ pH 8.0, 25 °C

Compound: N[C@@H](CO)COP(=O)(O)O [S-4, S-serinol phosphate]
- 31P NMR, formation of S-11: Cj1438 catalyzes the formation of compound S-11 using D-glucuronate, MgATP, and S-serinol phosphate (S-4).
